{"source": "patent US6143769A", "about": "“Phenylacetic acid benzylamides” (Karl Thomae GmbH, priority 1983, dated 2000)", "key": {"glucose": {"system": "glucose", "assay": "Study 5: plasma glucose after 1 mg AG-EE 388 ZW i.v., oral solution or capsule", "format": "in vivo, human", "text": "Blood samples were taken at different times."}, "[1]": {"assay": "Study 1: plasma concentration, non-stereoselective HPLC", "format": "in vivo, human"}}, "data": [{"smiles": "CCOc1cc(CC(=O)NC(CC(C)C)c2ccccc2N2CCCCC2)ccc1C(=O)O", "note": "(racemic) [AG-EE 388 ZW, 2-ethoxy-4-[N-[1-(2-piperidino-phenyl)-3-methyl-1-butyl]aminocarbonylmethyl]-benzoic acid]", "values": [{"measurement": "Glucose (mean)", "setting": "glucose; 1 mg i.v., 0.00 h", "result": 6.10, "unit": "mmol/L"}, {"measurement": "Glucose (mean)", "setting": "glucose; 1 mg p.o. capsule, 0.00 h", "result": 5.32, "unit": "mmol/L"}, {"measurement": "Glucose (mean)", "setting": "glucose; 1 mg p.o. solution, 0.00 h", "result": 5.85, "unit": "mmol/L"}, {"measurement": "Glucose (mean)", "setting": "glucose; i.v., 0.08 h", "result": 6.54, "unit": "mmol/L"}, {"measurement": "Glucose (mean)", "setting": "glucose; i.v., 0.17 h", "result": 6.46, "unit": "mmol/L"}, {"measurement": "Glucose (mean)", "setting": "glucose; i.v., 0.25 h", "result": 6.46, "unit": "mmol/L"}, {"measurement": "Glucose (mean)", "setting": "glucose; i.v., 0.28 h", "result": 6.46, "unit": "mmol/L"}, {"measurement": "Glucose (mean)", "setting": "glucose; i.v., 0.33 h", "result": 6.40, "unit": "mmol/L"}, {"measurement": "Glucose (mean)", "setting": "glucose; i.v., 0.42 h", "result": 6.01, "unit": "mmol/L"}, {"measurement": "Glucose (mean)", "setting": "glucose; i.v., 0.50 h", "result": 5.86, "unit": "mmol/L"}, {"measurement": "Glucose (mean)", "setting": "glucose; i.v., 0.75 h", "result": 5.14, "unit": "mmol/L"}, {"measurement": "Glucose (mean)", "setting": "glucose; i.v., 1.00 h", "result": 4.57, "unit": "mmol/L"}, {"measurement": "Glucose (mean)", "setting": "glucose; i.v., 1.50 h", "result": 4.55, "unit": "mmol/L"}, {"measurement": "Glucose (mean)", "setting": "glucose; i.v., 2.00 h (breakfast)", "result": 5.11, "unit": "mmol/L"}, {"measurement": "Glucose (mean)", "setting": "glucose; i.v., 2.50 h", "result": 7.14, "unit": "mmol/L"}, {"measurement": "Glucose (mean)", "setting": "glucose; i.v., 3.00 h", "result": 6.31, "unit": "mmol/L"}, {"measurement": "Glucose (mean)", "setting": "glucose; i.v., 4.00 h", "result": 5.58, "unit": "mmol/L"}, {"measurement": "Glucose (mean)", "setting": "glucose; i.v., 5.00 h (lunch)", "result": 5.48, "unit": "mmol/L"}, {"measurement": "Glucose (mean)", "setting": "glucose; i.v., 6.00 h", "result": 6.53, "unit": "mmol/L"}, {"measurement": "Glucose (mean)", "setting": "glucose; i.v., 9.00 h", "result": 6.49, "unit": "mmol/L"}, {"measurement": "Glucose (mean)", "setting": "glucose; i.v., 24.00 h", "result": 6.24, "unit": "mmol/L"}, {"measurement": "Glucose (mean)", "setting": "glucose; p.o. capsule, 0.25 h", "result": 6.08, "unit": "mmol/L"}, {"measurement": "Glucose (mean)", "setting": "glucose; p.o. capsule, 0.50 h", "result": 5.87, "unit": "mmol/L"}, {"measurement": "Glucose (mean)", "setting": "glucose; p.o. capsule, 0.75 h", "result": 5.85, "unit": "mmol/L"}, {"measurement": "Glucose (mean)", "setting": "glucose; p.o. capsule, 1.00 h", "result": 5.57, "unit": "mmol/L"}, {"measurement": "Glucose (mean)", "setting": "glucose; p.o. capsule, 1.50 h", "result": 5.24, "unit": "mmol/L"}, {"measurement": "Glucose (mean)", "setting": "glucose; p.o. capsule, 2.00 h (breakfast)", "result": 5.04, "unit": "mmol/L"}, {"measurement": "Glucose (mean)", "setting": "glucose; p.o. capsule, 3.00 h", "result": 5.04, "unit": "mmol/L"}, {"measurement": "Glucose (mean)", "setting": "glucose; p.o. capsule, 4.00 h", "result": 4.43, "unit": "mmol/L"}, {"measurement": "Glucose (mean)", "setting": "glucose; p.o. capsule, 5.00 h (lunch)", "result": 4.71, "unit": "mmol/L"}, {"measurement": "Glucose (mean)", "setting": "glucose; p.o. capsule, 6.00 h", "result": 5.41, "unit": "mmol/L"}, {"measurement": "Glucose (mean)", "setting": "glucose; p.o. capsule, 9.00 h", "result": 5.42, "unit": "mmol/L"}, {"measurement": "Glucose (mean)", "setting": "glucose; p.o. capsule, 24.00 h", "result": 5.44, "unit": "mmol/L"}, {"measurement": "Glucose (mean)", "setting": "glucose; p.o. solution, 0.25 h", "result": 6.13, "unit": "mmol/L"}, {"measurement": "Glucose (mean)", "setting": "glucose; p.o. solution, 0.50 h", "result": 5.99, "unit": "mmol/L"}, {"measurement": "Glucose (mean)", "setting": "glucose; p.o. solution, 0.75 h", "result": 5.83, "unit": "mmol/L"}, {"measurement": "Glucose (mean)", "setting": "glucose; p.o. solution, 1.00 h", "result": 5.77, "unit": "mmol/L"}, {"measurement": "Glucose (mean)", "setting": "glucose; p.o. solution, 1.50 h", "result": 5.40, "unit": "mmol/L"}, {"measurement": "Glucose (mean)", "setting": "glucose; p.o. solution, 2.00 h (breakfast)", "result": 5.11, "unit": "mmol/L"}, {"measurement": "Glucose (mean)", "setting": "glucose; p.o. solution, 3.00 h", "result": 5.40, "unit": "mmol/L"}, {"measurement": "Glucose (mean)", "setting": "glucose; p.o. solution, 4.00 h", "result": 4.86, "unit": "mmol/L"}, {"measurement": "Glucose (mean)", "setting": "glucose; p.o. solution, 5.00 h (lunch)", "result": 5.12, "unit": "mmol/L"}, {"measurement": "Glucose (mean)", "setting": "glucose; p.o. solution, 6.00 h", "result": 5.60, "unit": "mmol/L"}, {"measurement": "Glucose (mean)", "setting": "glucose; p.o. solution, 9.00 h", "result": 5.68, "unit": "mmol/L"}, {"measurement": "Glucose (mean)", "setting": "glucose; p.o. solution, 24.00 h", "result": 5.60, "unit": "mmol/L"}, {"measurement": "Concentration (mean)", "setting": "[1]; 2 mg capsule, 0 h", "result": 0.0, "unit": "ng/mL"}, {"measurement": "Concentration (mean)", "setting": "[1]; 2 mg capsule, 10.00 h", "result": 0.0, "unit": "ng/mL"}, {"measurement": "Time at which level reaches the detection limit", "setting": "[1]; 2 mg capsule, limit 5 ng/ml", "result": 5, "unit": "h"}, {"measurement": "concentration at 0.5 h", "setting": "[1]; human, plasma, po, 2 mg, 2 mg capsule, 0.50 h", "result": 55.8, "unit": "ng/mL"}, {"measurement": "concentration at 0.75 h", "setting": "[1]; human, plasma, po, 2 mg, 2 mg capsule, 0.75 h", "result": 82.9, "unit": "ng/mL"}, {"measurement": "concentration at 1 h", "setting": "[1]; human, plasma, po, 2 mg, 2 mg capsule, 1.00 h", "result": 82.8, "unit": "ng/mL"}, {"measurement": "concentration at 1.5 h", "setting": "[1]; human, plasma, po, 2 mg, 2 mg capsule, 1.50 h", "result": 64.7, "unit": "ng/mL"}, {"measurement": "concentration at 2 h", "setting": "[1]; human, plasma, po, 2 mg, 2 mg capsule, 2.00 h", "result": 58.3, "unit": "ng/mL"}, {"measurement": "concentration at 3 h", "setting": "[1]; human, plasma, po, 2 mg, 2 mg capsule, 3.00 h", "result": 29.4, "unit": "ng/mL"}, {"measurement": "concentration at 4 h", "setting": "[1]; human, plasma, po, 2 mg, 2 mg capsule, 4.00 h", "result": 16.3, "unit": "ng/mL"}, {"measurement": "concentration at 5 h", "setting": "[1]; human, plasma, po, 2 mg, 2 mg capsule, 5.00 h", "result": 9, "unit": "ng/mL"}, {"measurement": "concentration at 6 h", "setting": "[1]; human, plasma, po, 2 mg, 2 mg capsule, 6.00 h", "result": 4.2, "unit": "ng/mL"}, {"measurement": "concentration at 8 h", "setting": "[1]; human, plasma, po, 2 mg, 2 mg capsule, 8.00 h", "result": 1.2, "unit": "ng/mL"}, {"measurement": "Cmax", "setting": "[1]; human, plasma, po, 2 mg capsule p.o., read-out: Maximum concentration", "result": "83 ± 18", "unit": "ng/mL"}]}]}
